Laboratory results taken from patent US20240131173A1, “PROTACS WITH TRANSCRIPTION FACTOR TARGETING MOIETIES” (Beth Israel Deaconess Medical Center, Inc., priority 2021, published 2024).

Assays:
[1] = target: T1, VHL E3-PROTAC-p65 ternary complex (Homo sapiens, UniProt P40337+Q04206); experiment: GST pulldown assay of VHL E3 ligase complex and p65 with TF-PROTAC; assay type: binding; conditions: GST-VHL complex from E. coli, HEK293T lysate with Flag-p65, in vitro
T1 construct: made in house; host or cells: E. coli BL21(DE3) for the GST-VHL/Elongin B/C complex; HEK293T lysate for Flag-p65
Source text: Furthermore, dNF-κB is capable of recruiting VHL E3 ubiquitin ligase to POI, NF-κB. […] However, dNF-κB obtained in current stage could not efficiently promote the degradation of p65 in cells, which prompted further optimization of the length of linker between the VHL ligand and DNA oligomer moieties for achieving efficient destruction of NF-κB in cells.
pGEX-GST-VHL/ElonginB construct was kindly gift from Dr. William Kaelin, Jr. at Dana-Farber Cancer Institute, Harvard Medical School. pGEX-GST-Elongin C plasmid was generated by subcloning Elongin C CDS into the BamHI and Xhol sites of pGEX-4T1-GST vector. The GST-VHL/ElonginB/C complex was purified as described 43. Briefly, BL21(DE3) E. coli was cotransfected with pGEX-GST-VHL/ElonginB and pGEX-GSTElonginC plasmid. Protein expression was induced by 100 μM isopropyl beta-D-thiogalactopyranoside (IPTG, Fisher Scientific) at 18° C.overnight. Then, the bacterial culture was centrifuged and sonicated in PBS buffer with protease inhibitor cocktail. Protein lysates were further purified with glutathione-Sepharose beads (GE17-0756-05) and washed with PBS for 5 times.
Glutathione-Sepharose beads loaded with GST-VHL E3 ligase complex were incubated at 4° C. with cell lysate derived from HEK293T cells that ectopic transfected with individual transfection factor. After incubation for 3 hours, TF-PROTACs were added into the mixture for another 2 hours, followed by wash with NETN buffer for 3 times. The pulldown products were further separated by 10% SDS-PAGE and blotted for indicated proteins.

[2] = target: T2, p65 (Homo sapiens, UniProt Q04206); experiment: Global proteomic study by quantitative mass spectrometry in HeLa cells; assay type: cell-based; design: endogenous in cells; host or cells: HeLa; conditions: out of more than 4,100 detected proteins
Experimental: (§1) HeLa cells were treated with either vehicle or dNF-κB #16 for 12 hours, washed twice with cold PBS, and then harvested in PBS to pellet down cells. Cell pellets were resuspended in lysis buffer ([…], 50 mM Tris-HCl, pH 8.0), reduced with dithiothreitol (5 mM final) for 30 min at room temperature, and alkylated with iodoacetamide (15 mM final) for 45 min in the dark at room temperature. Samples were diluted 4-fold with digestion buffer (25 mM Tris-HCl, pH 8.0, 1 mM CaCl2) and digested with trypsin at 1:100 ratio (trypsin/protein, w/w) overnight at room temperature. Peptides were desalted on home-made C18 stagetips. There were two biological samples at each condition.
(§2) Dried peptides were dissolved in 0.1% formic acid, 2% acetonitrile. Peptide concentration was measured with Pierce™ Quantitative Colorimetric Peptide Assay (Thermofisher). 0.5 ug of peptides were analyzed on a Q-Exactive HF-X coupled with an Easy nanoLC 1200 (Thermo Fisher Scientific, San Jose, CA). Peptides were loaded on to a nanoEase MZ HSS T3 Column (100 Å, 1.8 μm, 75 μm×150 mm, Waters). […]
(§3) Mass spectra were processed, and peptide identification was performed using the MaxQuant software version 1.6.10.43 (Max Planck Institute, Germany). […] Quantitation using iBAQ intensity (Intensity-Based Absolute Quantification) was performed with a p-value of 0.01 to report statistically significant abundance fold-changes.
Target sequence in this assay (Q04206 whole entry): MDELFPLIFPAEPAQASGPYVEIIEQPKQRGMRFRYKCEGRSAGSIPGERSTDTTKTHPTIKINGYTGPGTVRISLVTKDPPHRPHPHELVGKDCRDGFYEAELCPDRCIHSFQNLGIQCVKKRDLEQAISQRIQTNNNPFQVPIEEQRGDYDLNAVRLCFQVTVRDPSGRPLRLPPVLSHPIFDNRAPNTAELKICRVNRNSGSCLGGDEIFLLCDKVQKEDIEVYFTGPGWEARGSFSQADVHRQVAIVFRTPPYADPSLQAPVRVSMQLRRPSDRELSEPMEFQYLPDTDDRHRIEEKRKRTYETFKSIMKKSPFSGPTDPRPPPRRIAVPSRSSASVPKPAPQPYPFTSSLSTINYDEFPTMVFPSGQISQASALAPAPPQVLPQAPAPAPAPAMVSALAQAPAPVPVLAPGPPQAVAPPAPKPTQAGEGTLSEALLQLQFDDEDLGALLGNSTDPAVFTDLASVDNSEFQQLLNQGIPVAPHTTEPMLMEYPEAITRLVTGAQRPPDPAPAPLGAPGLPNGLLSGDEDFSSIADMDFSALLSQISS
Target sequence in this assay (P19838 1-433 limits assumed, further chain): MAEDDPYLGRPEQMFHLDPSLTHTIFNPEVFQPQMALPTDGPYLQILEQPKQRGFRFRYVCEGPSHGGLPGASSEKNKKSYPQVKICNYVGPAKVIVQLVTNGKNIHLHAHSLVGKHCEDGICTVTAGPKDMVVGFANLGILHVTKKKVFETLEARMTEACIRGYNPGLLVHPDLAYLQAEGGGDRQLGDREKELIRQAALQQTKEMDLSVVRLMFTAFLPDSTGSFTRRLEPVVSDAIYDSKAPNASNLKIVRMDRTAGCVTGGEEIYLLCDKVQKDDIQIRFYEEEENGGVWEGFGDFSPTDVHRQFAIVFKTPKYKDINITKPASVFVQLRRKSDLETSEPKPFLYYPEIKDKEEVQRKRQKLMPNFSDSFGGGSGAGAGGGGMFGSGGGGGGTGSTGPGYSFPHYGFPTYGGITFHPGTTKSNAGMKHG

[3] = target: T3, p65 (Homo sapiens, UniProt P19838+Q04206); experiment: as above; assay type: cell-based; conditions: 12 hours, versus vehicle
T3 construct: endogenous in cells; host or cells: HeLa
Experimental: as §1, §2, §3

[4] = target: T2, p65; experiment: In vivo ubiquitination assay of p65 (Ni-NTA pulldown); assay type: cell-based; conditions: HEK293T cells, Flag-p65 24 hours, then dNF-κB 12 hours
Experimental: Denatured in vivo ubiquitination assays were performed as previously described 41. Briefly, HEK293T cells were firstly transfected with Flag-p65 or HA-E2F1 for 24 hours, followed by additional transfection of individual TF-PROTAC for another 12 hours. Before been harvested, HEK293T cells were treated with 30 μM of MG132 for 4 hours. After having been harvested in denatured buffer A (6 M guanidine-HCI, pH 8.0, 0.1 M Na2HPO4/NaH2PO4, and 10 mM imidazole) and sonication for 10 seconds, cell lysis was incubation with Ni-nitrilotriacetic acid (NTA) matrices under rotation for 3 hours at room temperature. The pulldown products were washed sequentially twice in buffer A, twice in buffer A/TI mixture (buffer A, buffer TI=1:3, v/v), and once in buffer TI (25 mM tris-HCl, pH 6.8, and 20 mM imidazole). The ubiquitinated proteins were finally separated by 7% SDS-PAGE and blotted with individual antibody.
Target sequence in this assay (Q04206 whole entry): as the sequence (Q04206 whole entry) above

T3 sequence (Q04206 whole entry): as above
T3 sequence (P19838 1-433 limits assumed): as the sequence (P19838 1-433 limits assumed, further chain) above
T1 sequence (P40337 whole entry): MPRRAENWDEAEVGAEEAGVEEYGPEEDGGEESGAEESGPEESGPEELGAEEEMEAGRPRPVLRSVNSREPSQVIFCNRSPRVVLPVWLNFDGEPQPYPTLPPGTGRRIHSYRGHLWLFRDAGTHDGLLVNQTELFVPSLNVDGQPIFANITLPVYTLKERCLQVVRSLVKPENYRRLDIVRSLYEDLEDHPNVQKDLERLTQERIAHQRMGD
T1 sequence (Q15370 whole entry partner): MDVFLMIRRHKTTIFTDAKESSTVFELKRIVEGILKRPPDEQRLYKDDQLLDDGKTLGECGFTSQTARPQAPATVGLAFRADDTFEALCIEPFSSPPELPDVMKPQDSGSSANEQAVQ
T1 sequence (Q15369 whole entry partner): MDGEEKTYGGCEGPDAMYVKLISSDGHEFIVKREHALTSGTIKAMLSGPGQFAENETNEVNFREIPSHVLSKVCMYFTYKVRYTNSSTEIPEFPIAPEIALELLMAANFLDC
T1 sequence (Q04206 whole entry): as the sequence (Q04206 whole entry) above

dNF-κB #16 (TGGGGACTTTCCAGTTTCTGGAAAGTCCCCA; decoy; VHL ligand conjugate via PEG3 linker, further chemistry not given here)
VHL E3 ligase-p65 binding (ternary complex) induced by PROTAC [1]: recruited the binding between the VHL E3 ubiquitin ligase and p65 in vitro
number of proteins with reduced expression level [2]: 31
p65 level in global proteomics [3]: significant degradation of p65
ubiquitination of p65 in cells [4]: lead to the ubiquitination of p65 in cells
